Measurements from the NIST ThermoML archive (doi:10.1016/j.jct.2004.11.016).
± gives the expanded uncertainty stated by the source.

Assay: xn = mol fraction of the nth substance listed
Settings: Liquid; for mass density: 101.3 kPa; for viscosity: 101 kPa

CN(C)CCO [2-(N,N-dimethylamino)ethanol] + O
Settings	mass density [kg/m3]	viscosity [mPa·s]
323.15 K, x1 = 0.895	868.495 ± 1.3	–
323.15 K, x1 = 1	861.902 ± 1.4	–
328.15 K, x1 = 0.0617	972.399 ± 0.67	–
328.15 K, x1 = 0.1009	964.905 ± 0.72	–
328.15 K, x1 = 0.2017	945.194 ± 0.85	–
328.15 K, x1 = 0.3033	927.188 ± 0.97	–
328.15 K, x1 = 0.4051	911.247 ± 1.1	–
328.15 K, x1 = 0.5077	898.016 ± 1.2	–
328.15 K, x1 = 0.6099	886.733 ± 1.2	–
328.15 K, x1 = 0.7652	873.15 ± 1.3	–
328.15 K, x1 = 0.895	864.065 ± 1.4	–
328.15 K, x1 = 1	857.46 ± 1.4	–
333.15 K, x1 = 0.0617	969.09 ± 0.69	–
333.15 K, x1 = 0.1009	961.13 ± 0.74	1.499 ± 0.022
333.15 K, x1 = 0.2017	940.864 ± 0.88	2.511 ± 0.037
333.15 K, x1 = 0.3033	922.714 ± 1	3.091 ± 0.044
333.15 K, x1 = 0.4051	906.75 ± 1.1	3.126 ± 0.045
333.15 K, x1 = 0.5077	893.531 ± 1.2	2.897 ± 0.042
333.15 K, x1 = 0.6099	882.262 ± 1.3	2.503 ± 0.037
333.15 K, x1 = 0.7652	868.68 ± 1.3	1.969 ± 0.03
333.15 K, x1 = 0.895	859.595 ± 1.4	1.641 ± 0.026
333.15 K, x1 = 1	852.965 ± 1.4	1.413 ± 0.021
338.15 K, x1 = 0.0617	965.663 ± 0.71	–
338.15 K, x1 = 0.1009	957.253 ± 0.77	–
338.15 K, x1 = 0.2017	936.472 ± 0.91	–
338.15 K, x1 = 0.3033	918.174 ± 1	–
338.15 K, x1 = 0.4051	902.184 ± 1.1	–
338.15 K, x1 = 0.5077	888.98 ± 1.2	–
338.15 K, x1 = 0.6099	877.726 ± 1.3	–
338.15 K, x1 = 0.7652	864.16 ± 1.4	–
338.15 K, x1 = 0.895	855.072 ± 1.4	–
338.15 K, x1 = 1	848.423 ± 1.5	–
343.15 K, x1 = 0.0617	961.835 ± 0.74	–
343.15 K, x1 = 0.1009	953.308 ± 0.8	1.186 ± 0.018
343.15 K, x1 = 0.2017	932.014 ± 0.94	1.896 ± 0.028
343.15 K, x1 = 0.3033	913.564 ± 1.1	2.27 ± 0.033
343.15 K, x1 = 0.4051	897.541 ± 1.2	2.302 ± 0.033
343.15 K, x1 = 0.5077	884.364 ± 1.2	2.152 ± 0.031
343.15 K, x1 = 0.6099	873.127 ± 1.3	1.909 ± 0.028
343.15 K, x1 = 0.7652	859.582 ± 1.4	1.551 ± 0.024
343.15 K, x1 = 0.895	850.491 ± 1.5	1.317 ± 0.021
343.15 K, x1 = 1	843.844 ± 1.5	1.156 ± 0.017
348.15 K, x1 = 0.0617	957.228 ± 0.77	–
348.15 K, x1 = 0.1009	949.273 ± 0.82	–
348.15 K, x1 = 0.2017	927.488 ± 0.97	–
348.15 K, x1 = 0.3033	908.868 ± 1.1	–
348.15 K, x1 = 0.4051	892.846 ± 1.2	–
348.15 K, x1 = 0.5077	879.677 ± 1.3	–
348.15 K, x1 = 0.6099	868.45 ± 1.3	–
348.15 K, x1 = 0.7652	854.939 ± 1.4	–
348.15 K, x1 = 0.895	845.858 ± 1.5	–
348.15 K, x1 = 1	839.205 ± 1.5	–
353.15 K, x1 = 0.0617	952.666 ± 0.8	–
353.15 K, x1 = 0.1009	945.149 ± 0.85	0.966 ± 0.015
353.15 K, x1 = 0.2017	922.889 ± 1	1.47 ± 0.022
353.15 K, x1 = 0.3033	904.132 ± 1.1	1.724 ± 0.025
353.15 K, x1 = 0.4051	888.074 ± 1.2	1.75 ± 0.026
353.15 K, x1 = 0.5077	874.926 ± 1.3	1.65 ± 0.024
353.15 K, x1 = 0.6099	863.729 ± 1.4	1.493 ± 0.022
353.15 K, x1 = 0.7652	850.236 ± 1.5	1.247 ± 0.019
353.15 K, x1 = 0.895	841.163 ± 1.5	1.078 ± 0.017
353.15 K, x1 = 1	834.521 ± 1.5	0.963 ± 0.015
358.15 K, x1 = 0.0617	950.878 ± 0.81	–
358.15 K, x1 = 0.1009	940.935 ± 0.88	–
358.15 K, x1 = 0.2017	918.216 ± 1	–
358.15 K, x1 = 0.3033	899.314 ± 1.2	–
358.15 K, x1 = 0.4051	883.233 ± 1.3	–
358.15 K, x1 = 0.5077	870.101 ± 1.3	–
358.15 K, x1 = 0.6099	858.928 ± 1.4	–
358.15 K, x1 = 0.7652	845.484 ± 1.5	–
358.15 K, x1 = 0.895	836.414 ± 1.5	–
358.15 K, x1 = 1	829.779 ± 1.6	–
363.15 K, x1 = 0.0617	946.398 ± 0.84	–
363.15 K, x1 = 0.1009	936.638 ± 0.9	–
363.15 K, x1 = 0.2017	913.472 ± 1.1	–
363.15 K, x1 = 0.3033	894.425 ± 1.2	–
363.15 K, x1 = 0.4051	878.314 ± 1.3	–
363.15 K, x1 = 0.5077	865.197 ± 1.4	–
363.15 K, x1 = 0.6099	854.052 ± 1.4	–
363.15 K, x1 = 0.7652	840.646 ± 1.5	–
363.15 K, x1 = 0.895	831.596 ± 1.6	–
363.15 K, x1 = 1	824.969 ± 1.6	–
